Values quoted from earlier work, collected in the CATMoS acute toxicity set (Mansouri et al. 2021).
Values joined by “and” are separate entries in the source; they are usually repeats but may differ in a detail not shown here. Identical values can stand only once.

Experiment: rat acute oral toxicity
Details: in vivo

Compound	LD50
CN(C(=O)CF)c1cccc2ccccc12	67 mg/kg
C#CCN1CCC2=C(C1)c1c(OC(=O)CCCN3CCCCC3)cc(C(C)C(C)CCCCC)cc1OC2(C)C (configuration not stated)	130 mg/kg
COc1cc2c(cc1OC)C1Cc3ccc(OC)c(OC)c3CN1CC2 (configuration not stated)	580 mg/kg
CCCCCCCCCCCCOC(=O)c1ccccc1	34500 mg/kg
COc1cc(N)c(Cl)cc1C(=O)NC1CCN(CCCOc2ccc(F)cc2)CC1OC (configuration not stated)	4170 mg/kg
CNC(=O)c1c(I)c(C(=O)NCC(=O)Nc2c(I)c(C(=O)O)c(I)c(C(=O)NCCO)c2I)c(I)c(N(C)C(C)=O)c1I	13300 mg/kg
CCCCN1CCCC1C(=O)Nc1c(C)cc(C)cc1C (configuration not stated)	14000 mg/kg
CCC1Cc2cc(CC(=O)O)ccc2O1 (configuration not stated)	1300 mg/kg
OCCOCCN1CCN(C(c2ccccc2)c2ccccc2)CC1	840 mg/kg
CC(=O)ON(C(=O)OC(C)C)c1ccccc1	3400 mg/kg
O=C(Oc1ccccc1)c1ccccc1C(=O)Oc1ccccc1	8000 mg/kg
CC(C)=CCC1C(=O)N(c2ccccc2)N(c2ccccc2)C1=O	1340 mg/kg
Cn1cc(CCc2cc[n+](CCC[N+](C)(C)C)cc2)c2ccccc21	200 mg/kg
c1cc(N(CC2CO2)CC2CO2)ccc1OCC1CO1 (configuration not stated)	1040 mg/kg
Cn1c(=O)c2c(ncn2CCCCN2CCN(c3ccc(Cl)cc3)CC2)n(C)c1=O	505 mg/kg
CCSC(=O)Oc1c(C(C)CC)cc([N+](=O)[O-])cc1[N+](=O)[O-] (configuration not stated)	147 mg/kg
CCN(CC)CCOCc1cc(Br)cc(Br)c1OC	500 mg/kg
C=CCN1CCCC1=Nc1ccc(Cl)c(Cl)c1	1850 mg/kg
CC(N)CN (configuration not stated)	2230 mg/kg
COc1ccnc(CS(=O)c2nc3cc(OC(F)F)ccc3[nH]2)c1OC (configuration not stated)	747 mg/kg
CCC(=O)C1(N2CCCCC2)CCN(CCCC(=O)c2ccc(F)cc2)CC1	780 mg/kg
CC1CN1 (configuration not stated)	19 mg/kg
OCCN1CCN(CCCN2c3ccccc3Sc3cc(Cl)cnc32)CC1	657 mg/kg
N#CC=Cc1ccccc1	4150 mg/kg

Compound	LD50
CC(C)COC(=O)COc1ccc(Cl)cc1Cl	300 mg/kg
CCOP(=S)(NC(C)CC)Oc1cc(C)ccc1[N+](=O)[O-] (configuration not stated)	630 mg/kg
CCCCOCCOCCCO	5160 mg/kg
CCC1(c2ccccc2)CCC(=O)NC1=O (configuration not stated)	600 mg/kg
CN(C)C(=O)c1sc(-c2cccnc2)nc1-c1ccccc1	1040 mg/kg
O=C1N=C2c3ccccc3N=CN2C1=Cc1ccccc1	325 mg/kg
CC(C)=C1CCC(C)CC1=O (configuration not stated)	470 mg/kg
CSC#N	60 mg/kg
C[N+]1(CCC(O)(c2ccccc2)C2CCCCC2)CCCC1 (configuration not stated)	984 mg/kg and 985 mg/kg
Nc1c([N+](=O)[O-])cc(Cl)cc1[N+](=O)[O-]	400 mg/kg
NCCCC1(CCCN)c2ccccc2-c2ccccc21	620 mg/kg
CCCCC(CC)CN1C(=O)C2C3C=CC(C3)C2C1=O (configuration not stated)	2800 mg/kg
CS(=O)(=O)c1ccc(-c2cn3ccccc3n2)cc1	3710 mg/kg
COc1ccc(OC)cc1	3600 mg/kg
CCC(CC)C(=O)OCCOCCOCCOC(=O)C(CC)CC	6000 mg/kg
CS(=O)(=O)Oc1ccc(Cl)cc1Cl	2790 mg/kg
CCOC(=O)CN(C)N=O	4000 mg/kg
CCOP(=O)(OCC)Oc1ccc2c(C)c(Cl)c(=O)oc2c1	10 mg/kg
COc1c(OP(=S)(OC)OC)cnn(C)c1=O	2.5 mg/kg
CNc1c2c(nn1C)CCCC2	1850 mg/kg
CCCCCCCCOC(=O)CC(C(=O)OCCCCCCCC)S(=O)(=O)O (configuration not stated)	1900 mg/kg
CN(CO)C(=S)S	590 mg/kg
CCCCc1c(OC(=O)C23CC4CC(CC(C4)C2)C3)n(-c2ccccc2)n(-c2ccccc2)c1=O	1700 mg/kg
CCCN(CCC)N=O	480 mg/kg

Compound	LD50
COc1cc(C(=O)N2CCOCC2)cc(OC)c1OC	1800 mg/kg
CN1CCc2ccccc21	1250 mg/kg
COc1c2ccoc2cc2oc(C)cc(=O)c12	832 mg/kg
CC(=O)Nc1ccc(-c2ccc(N)cc2)cc1	1630 mg/kg
CC1=NN(c2ccccc2)C(=O)C1C=O (configuration not stated)	716 mg/kg
Cc1cc(O)c(C)c(C)c1O	3200 mg/kg
CNC(=O)ON=C1SCSC1C (configuration not stated)	0.88 mg/kg
CN(C)CCC(O)(c1ccccc1)c1ccccc1Cl (configuration not stated)	350 mg/kg
CN(C(=O)c1ccc(N)cc1)C1CCN(C2CCCCC2)C1 (configuration not stated)	422 mg/kg
CCCCCCCCCCCCCCCCOC(=O)C1CC1	12200 mg/kg
CC1=CC=C(C(C)C)CC1	1680 mg/kg
C=COC(=O)c1ccccc1	3250 mg/kg
FC(F)(F)CO[C@@H]1CC[C@@](Cn2cncn2)(c2ccc(Cl)cc2Cl)O1	450 mg/kg
CCCCCCCCCCOC(=O)c1ccccc1C(=O)OCCCCCCCC	45000 mg/kg
O=C(O)c1ccc2c3c(ccc(C(=O)O)c13)C(=O)OC2=O	3510 mg/kg
CC(=O)CNC(C)(C)Cc1ccc(Cl)cc1	250 mg/kg
CC(O)COC[C@H]1O[C@@H](O)[C@H](OCC(C)O)[C@@H](OCC(C)O)[C@@H]1O (some centres not stated)	10200 mg/kg
C=CCSC(C)C1(CC(C)C)C(=O)N=C(O)NC1=O (configuration not stated)	417 mg/kg
CCN(CC)CCOc1ccccc1-n1c(C)ccc1-c1ccccc1	700 mg/kg
COCCOC	5370 mg/kg
NC(=O)C(c1ccccc1)c1ccccc1	600 mg/kg
CCCCCCCCc1ccc(-c2ccc(C#N)cc2)cc1	2200 mg/kg
CCO[Si](C)(C)CCl	1550 mg/kg
CN(C)c1ccc(-c2nc(=O)n(C)nc2-c2ccc(N(C)C)cc2)cc1	3000 mg/kg
